One assay addresses T1, CDK7/CyclinH/Mat1 (Homo sapiens, UniProt P50613).
T1 construct: purchased Carna Biosciences
Kind of assay: LanthaScreen Eu Kinase Binding Assay, CDK7. The conditions noted are these: tracer 236, read-out: Affinity (Kd) CDK7. The method, boiled down: (§1)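 TR-FRET competition binding with Alexa Fluor 647 tracer and Eu-anti-GST antibody; e.g. CDK2/Cyclin A 15 nM with tracer 236 60 nM (working solutions). Kinase buffer: HEPES 20 mM pH 8.0, MgCl2 10 mM, DTT 1 mM, Brij-35 0.01%; 8-point 1:3 series, 1 h at room temperature; Kd from sigmoidal dose-response curves.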
On the technique in general: TR-FRET usually uses a lanthanide donor and a delayed reading to cut background.

The target of the next assay is T2, CDK9 (Homo sapiens, UniProt P50750).
T2 construct: purchased Invitrogen
Kind of assay: Lance Ultra KinaSelect Assay, CDK9. The format is biochemical. The conditions noted are these: read-out: Inhibition (IC50) CDK9. As for the experimental part:
This protocol describes how the Lance Ultra KinaSelect Assay was performed to determine half maximal inhibitory concentration (IC50) of compounds of general formula (I) and CDK/Cyclin complexes. The principle behind this enzymatic assay is based upon the phosphorylation of the ULight-Peptide Substrat. It is detected by using a specific EU-labeled anti-phospho peptide antibody. The binding of the Eu-labeled anti-phospho peptide antibody to the phosphorylated U Light labeled peptide gives rise to a FRET-signal. Binding of an inhibitor to the kinase prevents phosphorylation of the ULight-MBP Substrat, resulting in a loss of FRET.
The compounds of general formula (I) summarized in Table 5 were diluted from a 10 mM DMSO stock solution 1:10 in a total volume of 15 μL DMSO. This compound predilution was then serial diluted 1:3 over 8 steps in DMSO and briefly spun down. Each compound solution was now diluted 1:20 in Enzymatic Buffer (HEPES: 50 mM, pH: 7.5; MgCl2: 10 mM; EGTA: 1 mM; DTT: 2 mM; Tween-20: 0.01%), mixed thoroughly and spun down. For every sample, 2 μL of the diluted compound were mixed with 6 μL CDK/Cyclin/Substrat solution and […] in a well of a small volume 384 well plate (Corning Incorporated, Corning, N.Y., USA; order no. 3673). […] For positive controls, in each well 2 μL of DMSO solution (1% final DMSO assay concentration) was mixed with 6 μL CDK/Cyclin/Substrat (appropriate final concentration see Table 3) and 2 μL Tracer ATP solution (appropriate final concentration see Table 3). Positive and negative controls were calculated from at least 8 different sample wells. The 384 well plates were mixed in a Teleshaker plate mixer (Beckman Coulter, Brea, Calif., USA) at 2000 rpm for 40 sec, and incubated for 1 h at room temperature. Before reading, 10 μL detection buffer (Lance Detection Buffer 1×; EDTA: […]; Eu-Anti-P-MBP: see Table 3) was added. The FRET signal was measured at 340 nm excitation, 665 nm and 615 nm emission (for the kinase tracer and LanthaScreen Eu-AB, respectively) with an Envision spectrophotometer (Perkin Elmer, Waltham, Mass., USA) with 50 μs delay and 300 μs integration time. IC50 values were determined from the sigmoidal dose response curves with the software Quattro Workflow (Quattro GmbH, Munich, Germany).

The target in a further assay is T3, CDK9/Cyclin K (Homo sapiens, UniProt P50750).
T3 construct: purchased Invitrogen
Kind of assay: LanthaScreen Eu Kinase Binding Assay, CDK9/Cyclin K. The conditions noted are these: tracer 236, read-out: Affinity (Kd) CDK9/Cyclin K. In a few lines: as §1

The test system of another assay is MDAMB468 cells. As to the kind of experiment: Cell viability assay, MDAMB468 cells. The format is cell-based. The conditions noted are these: Homo sapiens, MDA-MB-468, 72 h, Cell Titer Glo. As for the experimental part:
(§2) HeLa- or MDAMB468-Cells or MATU ADR, H460, DU145, CACO-2 or B16F10 cells were maintained in RPMI 1640 or McCoy's 5A cell culture medium+glutamine (PAN Biotech GmbH, Aidenbach, Germany; order no. P04-22100; P04-05500) supplemented with 10% fetal calf serum “Gold” (PAA Laboratories GmbH, Pasching, Austria; order no. A15-151) and grown at 37° C., 5% CO2. For the cell viability assay, cells were seeded with a density of 400 (Hela cells, DSMZ Braunschweig order no. ACC57) or 800 (MDAMB468 cells, ATCC order no. HTB-132) per well in 25 μL in 384-well plates (Greiner Bio-One, Frickenhausen, Germany; order no. 781080). After overnight incubation at 37° C./5% CO2, 25 nL or 75 nL compound were added to each sample well by using BIOMEK FXP Laboratory Automation Workstation (Beckman Coulter, USA). Wells with cells and 0.1% or 0.3% DMSO in culture medium were used as positive controls, wells with cells and 10 μM staurosporine in culture medium were used as negative controls. The cells were incubated with the compounds for 72 h at 37° C./5% CO2. For measurement of cell viability […] Cell Titer Glo reagent (Promega, Madison, USA; order no. G7573), 1:2 diluted with cell culture medium, was added to each well. The 384well-plates were placed for 2 min on an orbital microplate shaker and incubated for further 10 min at room temperature to stabilize the luminescence signal. Luminescence was measured by Envision Plate Reader (Perkin Elmer, USA). EC50 values were calculated with the software Excel Fit (IDBS, Guildford, UK) from 3-fold dilution series comprising at least 8 concentrations in duplicates.
For orientation: ATP-based viability assays read luminescence as a measure of living cells.

Another assay has as its target T4, CDK9/Cyclin T1 (Homo sapiens, UniProt P50750).
T4 construct: purchased Invitrogen
Kind of assay: LanthaScreen Eu Kinase Binding Assay, CDK9/Cyclin T1. The conditions noted are these: tracer 236, read-out: Affinity (Kd) CDK9/Cyclin T1. The method, boiled down: as §1

The next assay concerns the target T5, CDK2/CyclinA (Homo sapiens, UniProt P24941).
T5 construct: purchased Proqinase
As to the kind of experiment: LanthaScreen Eu Kinase Binding Assay, CDK2. The conditions noted are these: tracer 236, read-out: Affinity (Kd) CDK2. The method, boiled down:
as §1

A further assay concerns the target T6, CDK2/CycE (Homo sapiens, UniProt P24941).
T6 construct: GST; purchased ProQinase GmbH (Freiburg, Germany); host or cells: insect cells (Sf-9)
Kind of assay: CDK2/CycE kinase assay (TR-FRET). The format is biochemical. The conditions noted are these: ATP 10 μM, values given in μM. The text has this: CDK2/CycE-inhibitory activity of compounds of the present invention was quantified employing the CDK2/CycE TR-FRET assay as described in the following paragraphs.
Recombinant fusion proteins of glutathione S-transferase (GST) and human CDK2 and of GST and human CycE, expressed in insect cells (Sf-9) and purified by glutathion-sepharose affinity chromatography, were purchased from ProQinase GmbH (Freiburg, Germany). A biotinylated peptide biotin-Ttds-[…] (C-terminus in amide form), which can be purchased from e.g the company JERINI Peptide Technologies (Berlin, Germany), was used as a substrate for the kinase reaction.
For the assay, 50 nl of a 100-fold concentrated solution of the test compound in DMSO was pipetted into a well of a black low-volume 384-well microtiter plate (Greiner Bio-One, Frickenhausen, Germany), 2 μl of a solution of CDK2/CycE in aqueous assay buffer [50 mM Tris/HCl pH 8.0], 10 mM MgCl2, 1.0 mM dithiothreitol, 0.1 mM sodium ortho-vanadate, 0.01% (v/v) Nonidet-P40 (Sigma)] were added. The mixture was incubated at 22° C. for 15 min to allow pre-binding of the test compounds to the enzyme before the start of the kinase reaction. […] The resulting mixture was incubated at 22° C. for 25 minutes. The concentration of CDK2/CycE was adjusted depending on the activity of the enzyme lot and was chosen appropriately for measurements in the linear range of the assay. Typical concentrations were in the range of 130 ng/ml. The reaction was stopped by the addition of 5 μl of a solution of TR-FRET detection reagents (0.2 μM streptavidine-XL and 1 nM anti-RB(pSer807/pSer811)-antibody from BD Pharmingen [#558389] and 1.2 nM LANCE EU-W1024 labeled anti-mouse IgG antibody [Perkin-Elmer, product no. AD0077]) in an aqueous EDTA-solution (100 mM EDTA, 0.2% (w/v) bovine serum albumin in 100 mM HEPES/NaOH, pH 7.0).
The resulting mixture was incubated at 22° C. for one hour to allow the formation of a complex between the phosphorylated biotinylated peptide and the detection reagents. Subsequently, the amount of phosphorylated substrate was evaluated by measuring the resonance energy transfer from the Eu-chelate to the streptavidine-XL. Therefore, the fluorescence emissions at 620 nm and 665 nm after excitation at 350 nm were measured in a high time-resolved fluorometry (HTRF) reader, e.g. a Rubystar (BMG Labtechnologies, Offenburg, Germany) or a Viewlux (Perkin-Elmer). The ratio of the emissions at 665 nm and at […] was taken as a measure for the amounts of phosphorylated substrate. The data were normalised, i.e. enzyme reaction without inhibitor corresponds to 0% inhibition, and all other assay components in the absence of the enzyme correspond to 100% inhibition. IC50 values were calculated by a 4-parameter fit using in-house software.

A further assay concerns HeLa cells. As to the kind of experiment: Cell viability, HeLa cells. The format is cell-based. The conditions noted are these: Homo sapiens. As for the experimental part:
as §2
Cultivated tumour cells (NCl-H460, human non-small cell lung carcinoma cells, ATCC HTB-177; DU 145, hormone-independent human prostate carcinoma cells, ATCC HTB-81; HeLa-MaTu, human cervical carcinoma cells, EPO-GmbH, Berlin; HeLa-MaTu-ADR, multidrug-resistant human cervical carcinoma cells, EPO-GmbH, Berlin; HeLa human cervical tumour cells, ATCC CCL-2; Caco-2 human colorectal carcinoma, ATCC HTB-37; B16F10 mouse melanoma cells, ATCC CRL-6475) were plated at a density of 5,000 cells/well (DU145, HeLa-MaTu-ADR), 3,000 cells/well (NCl-H460, HeLa-MaTu, HeLa), 1,500 cells/well (Caco-2), or 1,000 cells/well (B16F10) in a 96-well multititer plate in 200 μL of their respective growth medium supplemented with 10% fetal calf serum. After 24 hours, the cells of one plate (zero-point plate) were stained with crystal violet (see below), while the medium of the other plates was replaced by fresh culture medium (200 μl), to which the test substances were added in various concentrations (0 μM as well as in the range of 0.001 to 10 μM; the final concentration of the solvent dimethyl sulfoxide was 0.5%). The cells were incubated in the presence of test substances for 4 days. Cell proliferation was determined by staining the cells with crystal violet: The cells were fixed by adding 20 μl/measuring point of an 11% glutaric aldehyde solution at room temperature for 15 minutes. After three washing cycles of the fixed cells with water, the plates were dried at room temperature. The cells were stained by adding 100 μl/measuring point of a 0.1% crystal violet solution (pH 3.0). After three washing cycles of the stained cells with water, the plates were dried at room temperature. The dye was dissolved by adding 100 μl/measuring point of a 10% acetic acid solution. The extinction was determined by photometry at a wavelength of 595 nm. The change of cell number, in percent, was calculated by normalization of the measured values to the extinction values of the zero-point plate (equivalent to 0%) and the extinction of the untreated (0 μm) cells (equivalent to 100%). The IC50 values were determined by means of a 4 parameter fit using the company's own software.

The text below walks through data of patent US20130079345A1, “[…] ACTIVE DISUBSTITUTED TRIAZINE DERIVATIVES” (BAYER INTELLECTUAL PROPERTY GMBH, priority 2010, published 2013).

T2 sequence (P50750 whole entry): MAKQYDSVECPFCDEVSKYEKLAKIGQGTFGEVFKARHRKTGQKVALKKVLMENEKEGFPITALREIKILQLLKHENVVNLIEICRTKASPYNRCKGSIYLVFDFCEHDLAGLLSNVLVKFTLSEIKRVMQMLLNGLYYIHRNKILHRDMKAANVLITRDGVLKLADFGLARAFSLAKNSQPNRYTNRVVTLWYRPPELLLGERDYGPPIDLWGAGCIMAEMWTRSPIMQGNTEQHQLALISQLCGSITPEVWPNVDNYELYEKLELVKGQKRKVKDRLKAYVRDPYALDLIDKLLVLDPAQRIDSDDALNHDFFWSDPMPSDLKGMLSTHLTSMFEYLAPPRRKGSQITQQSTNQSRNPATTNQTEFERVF
T3 sequence (P50750 whole entry): as above
T3 sequence (O75909 whole entry partner): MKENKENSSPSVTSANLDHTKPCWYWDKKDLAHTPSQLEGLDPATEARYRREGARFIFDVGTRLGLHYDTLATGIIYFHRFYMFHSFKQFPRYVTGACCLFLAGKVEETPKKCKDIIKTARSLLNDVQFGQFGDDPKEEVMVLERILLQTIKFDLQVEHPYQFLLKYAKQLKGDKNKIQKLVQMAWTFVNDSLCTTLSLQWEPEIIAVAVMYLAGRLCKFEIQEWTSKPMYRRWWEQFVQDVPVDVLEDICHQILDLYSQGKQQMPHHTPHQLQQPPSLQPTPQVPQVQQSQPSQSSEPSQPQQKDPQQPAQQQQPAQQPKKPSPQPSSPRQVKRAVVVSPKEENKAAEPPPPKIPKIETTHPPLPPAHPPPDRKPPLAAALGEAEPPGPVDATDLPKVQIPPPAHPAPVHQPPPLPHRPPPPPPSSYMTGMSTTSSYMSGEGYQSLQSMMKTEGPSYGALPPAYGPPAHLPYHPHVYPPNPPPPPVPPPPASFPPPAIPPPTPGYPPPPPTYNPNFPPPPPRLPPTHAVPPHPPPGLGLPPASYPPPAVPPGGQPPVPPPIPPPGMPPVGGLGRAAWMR
T4 sequence (P50750 whole entry): as the sequence (P50750 whole entry) above
T4 sequence (O60563 whole entry partner): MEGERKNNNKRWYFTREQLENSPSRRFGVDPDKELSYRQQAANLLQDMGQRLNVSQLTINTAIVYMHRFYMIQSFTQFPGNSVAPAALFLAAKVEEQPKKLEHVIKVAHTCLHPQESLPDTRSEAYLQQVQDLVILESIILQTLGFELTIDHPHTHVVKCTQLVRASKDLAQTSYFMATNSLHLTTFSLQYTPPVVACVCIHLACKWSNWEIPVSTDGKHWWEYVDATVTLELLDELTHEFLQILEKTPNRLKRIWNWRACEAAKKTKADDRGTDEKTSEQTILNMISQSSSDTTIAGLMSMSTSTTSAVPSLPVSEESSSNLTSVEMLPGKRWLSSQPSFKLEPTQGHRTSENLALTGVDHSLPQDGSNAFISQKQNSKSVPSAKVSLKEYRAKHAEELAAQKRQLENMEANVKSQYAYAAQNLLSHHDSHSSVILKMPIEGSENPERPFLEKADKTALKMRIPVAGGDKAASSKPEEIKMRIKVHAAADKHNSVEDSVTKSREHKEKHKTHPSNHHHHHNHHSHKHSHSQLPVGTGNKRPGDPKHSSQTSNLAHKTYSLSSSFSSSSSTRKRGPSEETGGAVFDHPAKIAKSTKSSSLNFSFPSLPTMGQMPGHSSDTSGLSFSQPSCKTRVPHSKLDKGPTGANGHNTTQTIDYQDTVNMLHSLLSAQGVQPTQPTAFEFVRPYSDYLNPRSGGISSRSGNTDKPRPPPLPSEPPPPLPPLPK
T1 sequence (P50613 whole entry): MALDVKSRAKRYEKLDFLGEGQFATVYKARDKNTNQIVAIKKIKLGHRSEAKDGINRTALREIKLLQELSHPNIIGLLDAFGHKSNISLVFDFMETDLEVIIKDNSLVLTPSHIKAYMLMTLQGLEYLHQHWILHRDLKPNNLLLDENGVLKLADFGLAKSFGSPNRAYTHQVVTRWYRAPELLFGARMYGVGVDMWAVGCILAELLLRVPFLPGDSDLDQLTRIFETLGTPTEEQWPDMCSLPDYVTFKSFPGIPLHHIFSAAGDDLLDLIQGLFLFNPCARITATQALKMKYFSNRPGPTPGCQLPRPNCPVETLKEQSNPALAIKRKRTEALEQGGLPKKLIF
T1 sequence (P51946 whole entry partner): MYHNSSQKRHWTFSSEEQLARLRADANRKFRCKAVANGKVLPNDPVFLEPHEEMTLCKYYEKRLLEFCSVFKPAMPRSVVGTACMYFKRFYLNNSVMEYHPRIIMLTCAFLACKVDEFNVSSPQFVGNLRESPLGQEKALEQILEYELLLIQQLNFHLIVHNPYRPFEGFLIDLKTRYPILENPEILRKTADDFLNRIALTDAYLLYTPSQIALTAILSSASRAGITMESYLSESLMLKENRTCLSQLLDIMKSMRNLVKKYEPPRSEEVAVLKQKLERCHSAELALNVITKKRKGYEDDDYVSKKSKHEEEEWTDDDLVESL
T1 sequence (P51948 whole entry partner): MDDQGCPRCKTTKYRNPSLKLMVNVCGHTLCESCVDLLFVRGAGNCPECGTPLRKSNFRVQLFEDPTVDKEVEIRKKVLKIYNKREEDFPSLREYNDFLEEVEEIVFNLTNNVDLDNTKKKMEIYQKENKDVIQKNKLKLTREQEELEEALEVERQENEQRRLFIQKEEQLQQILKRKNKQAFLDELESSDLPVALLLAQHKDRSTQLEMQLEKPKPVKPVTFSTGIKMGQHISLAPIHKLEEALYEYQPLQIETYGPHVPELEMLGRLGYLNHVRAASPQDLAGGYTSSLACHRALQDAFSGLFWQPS

On to `COc1ccccc1-c1ncnc(Nc2cccc(C(N)=O)c2)n1` [Compound E1, 3-[(4-(2-Methoxyphenyl)-1,3,5-triazin-2-yl)amino]benzamide], for which the Kd was more than 10 µM at CDK7/CyclinH/Mat1, 0.301 µM on CDK9/Cyclin K, 0.136 µM at CDK9/Cyclin T1 and 2.16 µM at CDK2/CyclinA. Moreover, the figures for the IC50 on CDK9 and with MDAMB468 cells were 0.837 µM and 23 µM, respectively.

Consider `COc1ccccc1-c1cc(Nc2cccc(CS(N)(=O)=O)c2)ncn1` [Ref1, C-{3-[6-(2-Methoxy-phenyl)-pyrimidin-4-ylamino]-phenyl}-methanesulfonamide, reference compound], for which the IC50 (as a rule, the concentration needed to halve the response being measured) against CDK2/CycE amounted to 2.1 µM; in the assay with HeLa cells, 3.4 µM.
